# From US20230109010A1, “PESTICIDE COMPOSITIONS WITH SUPRAMOLECULAR STRUCTURES FOR AGRICULTURAL USE” (BPS JUST ENERGY TECHNOLOGY, LLC, priority 2020, published 2023)
# Columns and labels:
# palmer amaranth [1] = assay: Field trial in corn, herbicide applied 3 days after planting, % weed control; type: in vivo, Amaranthus palmeri
# Method: (§1) The herbicides tested were acetochlor and s-metolachlor. Each herbicide was combined at the specified rate with either deionized water or SymMAX™ supramolecular host chemistry that is commercially available from Shotwell Hydrogenics at 15 gallons per acre (GPA). Specified rates for acetochlor were 0.5 parts per acre, 1 part per acre, and 2 parts per acre. […]
# (§2) This example was conducted as a 4 replicate, RCBD (randomized control block design) in Quitman, GA. An untreated control was used as a standard that provided no weed control and no phytotoxicity. All treatments were compared to the untreated control. Counted dead weeds and living weeds were used to determine % weed control. The untreated control was also used to determine % crop phytotoxicity for the crop. Typical indications of phytotoxicity include chlorosis, stunting, epinasty, and/or leaf burn.
# (§3) The trial ran for 28 days with weekly data assessments taken on % crop phytotoxicity and % weed control of three key species: palmer amaranth (Amaranthus palmeri), fall panicum (Panicum dichotomiflorum) and large crabgrass (Digitaria sanguinalis). The test field was over seeded with weed seed obtained from the University of Georgia prior to corn planting. Treatments were applied 3 days after planting as a broadcast application at various rates ranging from about 0.5 parts per acre to about 2 parts per acre. Tables 1-4 show the % weed control when the weeds are treated with acetachlor. Tables 4-8 show the % weed control when the weeds are treated with s-metolachlor.
# fall panicum [2] = assay: as above; type: in vivo, Panicum dichotomiflorum
# Method: as §1, §2, §3
# large crabgrass [3] = assay: as above; type: in vivo, Digitaria sanguinalis
# Method: as §1, §2, §3
# fall panicum [4] = assay: Field trial in corn at V3, broadcast treatment on 2-4 inch weeds, % weed control; type: in vivo, Panicum dichotomiflorum
# Excerpt: (§4) The herbicides tested were glufosinate, glyphosate, and mesotrione. Each herbicide was combined at the specified rate with either deionized water or SymMAX™ supramolecular host water mixture commercially available from Shotwell Hydrogenics at 15 gallons per acre (GPA). Specified rates for glufosinate were 22 ounces per acre, 11 ounces per acre, and 5.5 ounces per acre. Specified rates for glyphosate were 22 ounces per acre, 11 ounces per acre, and 5.5 ounces per acre. Specified rates for mesotrione were 3 ounces per acre, 2 ounces per acre, and 1 ounce per acre.
# as §2
# (§5) The trial ran for 14 days with weekly data assessments taken on % crop phytotoxicity and % weed control of four key species: palmer amaranth (Amaranthus palmeri), ivyleaf morning glory (Ipomoea hederacea), fall panicum (Panicum dichotomiflorum) and large crabgrass (Digitaria sanguinalis The test field was over seeded with weed seed obtained from the University of Georgia prior to corn planting. Treatments were applied as a broadcast treatment when corn had reached physiological growth stage V3 and weeds were in the 2-4″ size range. Treatments were applied at various rates ranging from about 1 ounce per acre to about 22 ounces per acre. Tables 9-10 show the % weed control when the weeds are treated with glufosinate. Tables 11-12 show the % weed control when the weeds are treated with glyphosphate. Tables 13-14 show the % weed control when the weeds are treated with mesotrione.
# ivyleaf morning glory = assay: as above; type: in vivo, Ipomoea hederacea
# Excerpt: as §4, §2, §5
# large crabgrass [5] = assay: as above; type: in vivo, Digitaria sanguinalis
# Excerpt: as §4, §2, §5
# palmer amaranth [6] = assay: as above; type: in vivo, Amaranthus palmeri
# Excerpt: as §4, §2, §5
# [7] = 7 days, acetochlor 0.5 part/acre
# [8] = 7 days, acetochlor 2 parts/acre
# [9] = 14 days, acetochlor 0.5 part/acre
# [10] = 14 days, acetochlor 1 part/acre
# [11] = 14 days, acetochlor 2 parts/acre
# [12] = 21 days, acetochlor 0.5 part/acre
# [13] = 21 days, acetochlor 1 part/acre
# [14] = 21 days, acetochlor 2 parts/acre
# [15] = 28 days, acetochlor 0.5 part/acre
# [16] = 28 days, acetochlor 1 part/acre
# [17] = 28 days, acetochlor 2 parts/acre
# [18] = 7 days, glufosinate 5.5 ounces/acre
# [19] = 7 days, glufosinate 11 ounces/acre
# [20] = 7 days, glufosinate 22 ounces/acre
# [21] = 14 days, glufosinate 5.5 ounces/acre
# [22] = 14 days, glufosinate 11 ounces/acre
# [23] = 14 days, glufosinate 22 ounces/acre
compound,measurement,setting,value
"CCOCN(C(=O)CCl)c1c(C)cccc1CC [Acetochlor, acetochlor]",% WEED CONTROL FOR PALMER AMARANTH,palmer amaranth [1]; [7],87.0%
same,% WEED CONTROL FOR PALMER AMARANTH,"palmer amaranth [1]; 7 days, acetochlor 1 part/acre",88.5%
same,% WEED CONTROL FOR PALMER AMARANTH,palmer amaranth [1]; [8],93.3%
same,% WEED CONTROL FOR PALMER AMARANTH,palmer amaranth [1]; [9],82.3%
same,% WEED CONTROL FOR PALMER AMARANTH,palmer amaranth [1]; [10],87.0%
same,% WEED CONTROL FOR PALMER AMARANTH,palmer amaranth [1]; [11],97.7%
same,% WEED CONTROL FOR PALMER AMARANTH,palmer amaranth [1]; [12],61.7%
same,% WEED CONTROL FOR PALMER AMARANTH,palmer amaranth [1]; [13],81.0%
same,% WEED CONTROL FOR PALMER AMARANTH,palmer amaranth [1]; [14],90.0%
same,% WEED CONTROL FOR PALMER AMARANTH,palmer amaranth [1]; [15],44.5%
same,% WEED CONTROL FOR PALMER AMARANTH,palmer amaranth [1]; [16],67.4%
same,% WEED CONTROL FOR PALMER AMARANTH,palmer amaranth [1]; [17],99.7%
same,% WEED CONTROL FOR FALL PANICUM,fall panicum [2]; [7],65.5%
same,% WEED CONTROL FOR FALL PANICUM,"fall panicum [2]; 7 days, acetochlor 1 part/acre",69.3%
same,% WEED CONTROL FOR FALL PANICUM,fall panicum [2]; [8],87.3%
same,% WEED CONTROL FOR FALL PANICUM,fall panicum [2]; [9],49.3%
same,% WEED CONTROL FOR FALL PANICUM,fall panicum [2]; [10],53.0%
same,% WEED CONTROL FOR FALL PANICUM,fall panicum [2]; [11],78.0%
same,% WEED CONTROL FOR FALL PANICUM,fall panicum [2]; [12],37.6%
same,% WEED CONTROL FOR FALL PANICUM,fall panicum [2]; [13],40.9%
same,% WEED CONTROL FOR FALL PANICUM,fall panicum [2]; [14],81.3%
same,% WEED CONTROL FOR FALL PANICUM,fall panicum [2]; [15],60.0%
same,% WEED CONTROL FOR FALL PANICUM,fall panicum [2]; [16],57.3%
same,% WEED CONTROL FOR FALL PANICUM,fall panicum [2]; [17],88.0%
same,% WEED CONTROL FOR LARGE CRABGRASS,large crabgrass [3]; [7],69.5%
same,% WEED CONTROL FOR LARGE CRABGRASS,"large crabgrass [3]; 7 days, acetochlor 1 part/acre",74.5%
same,% WEED CONTROL FOR LARGE CRABGRASS,large crabgrass [3]; [8],87.0%
same,% WEED CONTROL FOR LARGE CRABGRASS,large crabgrass [3]; [9],45.8%
same,% WEED CONTROL FOR LARGE CRABGRASS,large crabgrass [3]; [10],49.0%
same,% WEED CONTROL FOR LARGE CRABGRASS,large crabgrass [3]; [11],74.5%
same,% WEED CONTROL FOR LARGE CRABGRASS,large crabgrass [3]; [12],45.3%
same,% WEED CONTROL FOR LARGE CRABGRASS,large crabgrass [3]; [13],43.0%
same,% WEED CONTROL FOR LARGE CRABGRASS,large crabgrass [3]; [14],73.3%
same,% WEED CONTROL FOR LARGE CRABGRASS,large crabgrass [3]; [15],47.8%
same,% WEED CONTROL FOR LARGE CRABGRASS,large crabgrass [3]; [16],48.0%
same,% WEED CONTROL FOR LARGE CRABGRASS,large crabgrass [3]; [17],92.1%
"CP(=O)(O)CCC(N)C(=O)O (stereo not drawn) [Glufosinate, glufosinate]",% WEED CONTROL FOR FALL PANICUM,fall panicum [4]; [18],100.0%
same,% WEED CONTROL FOR FALL PANICUM,fall panicum [4]; [19],99.5%
same,% WEED CONTROL FOR FALL PANICUM,fall panicum [4]; [20],100.0%
same,% WEED CONTROL FOR FALL PANICUM,fall panicum [4]; [21],83.3%
same,% WEED CONTROL FOR FALL PANICUM,fall panicum [4]; [22],92.7%
same,% WEED CONTROL FOR FALL PANICUM,fall panicum [4]; [23],95.5%
same,% WEED CONTROL FOR IVYLEAF MORNINGLORY,ivyleaf morning glory; [18],16.5%
same,% WEED CONTROL FOR IVYLEAF MORNINGLORY,ivyleaf morning glory; [19],52.3%
same,% WEED CONTROL FOR IVYLEAF MORNINGLORY,ivyleaf morning glory; [20],70.1%
same,% WEED CONTROL FOR IVYLEAF MORNINGLORY,ivyleaf morning glory; [21],5.1%
same,% WEED CONTROL FOR IVYLEAF MORNINGLORY,ivyleaf morning glory; [22],41.2%
same,% WEED CONTROL FOR IVYLEAF MORNINGLORY,ivyleaf morning glory; [23],64.0%
same,% WEED CONTROL FOR LARGE CRABGRASS,large crabgrass [5]; [18],100.0%
same,% WEED CONTROL FOR LARGE CRABGRASS,large crabgrass [5]; [19],100.0%
same,% WEED CONTROL FOR LARGE CRABGRASS,large crabgrass [5]; [20],100.0%
same,% WEED CONTROL FOR LARGE CRABGRASS,large crabgrass [5]; [21],91.8%
same,% WEED CONTROL FOR LARGE CRABGRASS,large crabgrass [5]; [22],99.5%
same,% WEED CONTROL FOR LARGE CRABGRASS,large crabgrass [5]; [23],100.0%
same,% WEED CONTROL FOR PALMER AMARANTH,palmer amaranth [6]; [18],51.5%
same,% WEED CONTROL FOR PALMER AMARANTH,palmer amaranth [6]; [19],77.9%
same,% WEED CONTROL FOR PALMER AMARANTH,palmer amaranth [6]; [20],82.6%
same,% WEED CONTROL FOR PALMER AMARANTH,palmer amaranth [6]; [21],29.0%
same,% WEED CONTROL FOR PALMER AMARANTH,palmer amaranth [6]; [22],69.3%
same,% WEED CONTROL FOR PALMER AMARANTH,palmer amaranth [6]; [23],76.1%
